In patent US20240254087A1, “SELECTIVE, PARTIAL, AND ARRESTIN-BIASED 5-HT2A AGONISTS WITH UTILITY IN VARIOUS DISORDERS” (Saint Joseph's University, priority 2021, published 2024):

What was measured:
[1] = test system: mice; assay: PCP-induced locomotor hyperactivity; assay type: in vivo, mouse; conditions: PCP 5 mg/kg IP, 25N-N1-Nap 3 mg/kg SC, M100907 0.03 mg/kg SC
Method: (A). DOI, a hallucinogen and 5-HT2A agonist, was administered IP 10 min after SC administration of vehicle or test drug. A and then HTR activity was assessed for 30 minutes. *p<0.001, significant difference vs. vehicle (B). Vehicle or the NMDA receptor antagonist PCP (5 mg/kg) was injected IP 10 min after SC administration of vehicle or 25N-NB1-Nap (16), and then the mice were placed in the test chambers 10 min later for a 60-min assessment of locomotor activity. (C). […] Mice were treated with vehicle or M100907 (0.03 mg/kg SC) 10 min prior to vehicle or PCP (5 mg/kg IP): animals were placed in the test chambers 10 min after treatment with PCP. Animals were tested for 60 min. *p<0.01 vs. vehicle: ^#p<0.01 vs. PCP alone.
Male C57BL/6J mice (6-8 weeks old) from Jackson Labs (Bar Harbor, ME, USA) were used for the behavioral experiments. The mice were housed on a reversed light-dark cycle (lights on at 1900 h, off at 0700 h) in an AAAC-approved vivarium at the University of California San Diego. Mice were housed up to four per cage in a climate-controlled room and with food and water provided ad libitum except during behavioral testing. Testing was performed between 1000 and 1800 h (during the dark phase of the light-dark cycle). The studies were conducted in accordance with National Institutes Health (NIH) guidelines and were approved by the University of California San Diego Institutional Animal Care and Use Committee.
Edelfosine, DOI, R—(−)-DOI, and PCP were injected IP (5 mL/kg): 25N—NB and its derivatives were injected SC (5 mL/kg or 10 mL/kg): YM-254,890 was injected into the lateral ventricle (2 μL) over 1 min.
The mouse behavioral pattern monitor (BPM) was used to assess locomotor activity. Each mouse BPM chamber (San Diego Instruments, San Diego, CA, USA) is a transparent Plexiglas box with an opaque 30×60 cm floor, enclosed in a ventilated isolation box. The position of the mouse in x.y coordinates is recorded by a grid of 12×24 infrared photobeams located 1 cm above the floor. A second row of 16 photobeams (parallel to the long axis of the chamber, located 2.5 cm above the floor) is used to detect rearing behavior. Holepoking behavior is detected by 11 1.4-cm holes that are situated in the walls (3 holes in each long wall, 2 holes in each short wall) and the floor ([…]); each hole is equipped with an infrared photobeam. The status of each photobeam is sampled every 55 ms and recorded for offline analysis. Locomotor activity was quantified as distance traveled, which was analyzed in 20-min blocks using a three-way ANOVA, with pretreatment and treatment as between subject variables and time as a within-subject variable. Tukey's studentized range method was used for post hoc comparisons.

[2] = biological target: T1, 5-HT2A (Homo sapiens, UniProt P28223); assay: cell-based; design: expressed in transfected cells; host or cells: HEK293T, transient; conditions: for Emax: read-out: 5-HT2A β-arrestin Emax (% 5-HT), BRET, mean ± SEM
[3] = biological target: T1, 5-HT2A; assay: [3H]-ketanserin displacement, 5-HT2A membranes; assay type: binding; design: ES-313-M400UA (membranes); host or cells: CHO-K1; conditions: [3H]-ketanserin displacement (n = 2); read-out: 5-HT2A pKi Mean ± SEM (converted)
[4] = biological target: T1, 5-HT2A; assay: cell-based; design: expressed in transfected cells; host or cells: HEK293T, transient; conditions: for Emax: read-out: 5-HT2A Gq Emax (% 5-HT), BRET, mean ± SEM
[5] = test system: 5-HT2A; assay: Ca2+ flux assay, 5-HT2A; assay type: cell-based, human; conditions: Gq/11 Ca2+ mobilization; higher number = skewed towards 5-HT2A
[6] = biological target: T2, 5-HT2B (Homo sapiens, UniProt P41595); assay: Competitive radioligand binding (NIMH PDSP); design: expressed in transfected cells
Method: (§1) Method 1: Competitive binding experiments were performed by the National Institute of Mental Health Psychoactive Drug Screening Program (NIMH PDSP) using described methods or 5-HT2A experiments performed using [3H]-ketanserin displacement in human 5-HT2A expressing membranes. Target compounds were dissolved in DMSO and an initial screen performed to assess displacement of the radioligand from target receptors at a concentration of 10,000 nM. […] For the Ki experiments, compounds were always tested in triplicate on separate plates. Each plate also contained a known ligand for the receptor as a positive control.

[7] = biological target: T3, 5-HT2C (Homo sapiens, UniProt P28335); assay: Competitive radioligand binding (NIMH PDSP); design: expressed in transfected cells
T3 sequence (P28335 33-458): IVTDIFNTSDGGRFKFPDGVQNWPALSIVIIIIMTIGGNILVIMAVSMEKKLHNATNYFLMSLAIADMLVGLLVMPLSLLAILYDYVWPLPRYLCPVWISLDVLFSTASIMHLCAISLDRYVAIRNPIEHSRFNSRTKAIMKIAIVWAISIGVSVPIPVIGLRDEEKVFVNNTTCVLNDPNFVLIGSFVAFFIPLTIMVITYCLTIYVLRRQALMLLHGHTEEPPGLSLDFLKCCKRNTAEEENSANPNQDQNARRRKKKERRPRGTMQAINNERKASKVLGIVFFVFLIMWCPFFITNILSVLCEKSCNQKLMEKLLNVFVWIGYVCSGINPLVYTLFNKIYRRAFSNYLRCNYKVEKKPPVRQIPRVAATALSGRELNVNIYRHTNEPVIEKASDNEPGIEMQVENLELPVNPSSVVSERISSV
Method: as §1

[8] = biological target: T2, 5-HT2B; assay: Ca2+ flux assay, 5-HT2B; assay type: cell-based; design: expressed in transfected cells; conditions: Ca2+ flux
[9] = biological target: T1, 5-HT2A; assay: Ca2+ flux assay, 5-HT2A; assay type: cell-based; design: expressed in transfected cells
[10] = biological target: 5-HT1D (Homo sapiens, UniProt P28221); assay: Competitive radioligand binding (NIMH PDSP)
Method: as §1

[11] = biological target: T4, 5-HT3 (Homo sapiens, UniProt P46098); assay: Competitive radioligand binding (NIMH PDSP)
T4 sequence (P46098 24-478): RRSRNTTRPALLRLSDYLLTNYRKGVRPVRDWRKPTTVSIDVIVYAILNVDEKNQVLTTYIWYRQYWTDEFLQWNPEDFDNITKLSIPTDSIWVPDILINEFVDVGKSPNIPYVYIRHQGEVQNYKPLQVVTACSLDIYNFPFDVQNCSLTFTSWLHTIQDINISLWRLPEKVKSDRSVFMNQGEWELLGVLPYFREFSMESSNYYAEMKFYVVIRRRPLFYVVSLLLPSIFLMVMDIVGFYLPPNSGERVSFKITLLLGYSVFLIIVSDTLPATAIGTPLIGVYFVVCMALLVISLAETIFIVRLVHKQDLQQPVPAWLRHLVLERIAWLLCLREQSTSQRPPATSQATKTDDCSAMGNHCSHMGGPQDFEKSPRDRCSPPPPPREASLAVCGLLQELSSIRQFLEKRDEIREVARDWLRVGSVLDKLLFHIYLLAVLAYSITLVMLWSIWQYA
Method: as §1

[12] = biological target: T1, 5-HT2A; assay: Competitive radioligand binding (NIMH PDSP)
Method: as §1

[13] = biological target: 5-HT1B (Homo sapiens, UniProt P28222); assay: Competitive radioligand binding (NIMH PDSP)
Method: as §1

[14] = biological target: T5, 5-HT1A (Homo sapiens, UniProt P08908); assay: Competitive radioligand binding (NIMH PDSP)
T5 sequence (P08908 1-422): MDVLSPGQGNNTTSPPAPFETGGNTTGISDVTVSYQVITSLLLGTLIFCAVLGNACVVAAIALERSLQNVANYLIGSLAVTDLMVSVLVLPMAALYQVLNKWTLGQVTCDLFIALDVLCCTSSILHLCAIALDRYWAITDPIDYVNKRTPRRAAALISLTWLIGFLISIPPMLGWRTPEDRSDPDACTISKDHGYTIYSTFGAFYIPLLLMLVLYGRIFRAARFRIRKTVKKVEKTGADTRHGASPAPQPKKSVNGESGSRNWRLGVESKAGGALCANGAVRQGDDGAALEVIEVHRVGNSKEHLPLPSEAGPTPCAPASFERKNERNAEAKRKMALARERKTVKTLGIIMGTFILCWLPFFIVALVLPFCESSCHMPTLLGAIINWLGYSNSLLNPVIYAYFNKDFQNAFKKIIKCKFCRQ
Method: as §1

[15] = biological target: 5-HT7 (Homo sapiens, UniProt P34969); assay: Competitive radioligand binding (NIMH PDSP)
Method: as §1

[16] = biological target: 5-HT5a (Homo sapiens, UniProt P47898); assay: Competitive radioligand binding (NIMH PDSP)
Method: as §1

[17] = biological target: 5-HT6 (Homo sapiens, UniProt P50406); assay: Competitive radioligand binding (NIMH PDSP)
Method: as §1

[18] = biological target: 5-HT1e (Homo sapiens, UniProt P28566); assay: Competitive radioligand binding (NIMH PDSP)
Method: as §1

[19] = biological target: T3, 5-HT2C; assay: Ca2+ flux assay, 5-HT2C; assay type: cell-based; design: expressed in transfected cells
[20] = BRET, mean ± SEM, read-out: 5-HT2A β-arrestin recruitment pEC50 (converted)
[21] = BRET, mean ± SEM, read-out: 5-HT2A Gq dissociation pEC50 (converted)

T1 sequence (P28223 whole entry): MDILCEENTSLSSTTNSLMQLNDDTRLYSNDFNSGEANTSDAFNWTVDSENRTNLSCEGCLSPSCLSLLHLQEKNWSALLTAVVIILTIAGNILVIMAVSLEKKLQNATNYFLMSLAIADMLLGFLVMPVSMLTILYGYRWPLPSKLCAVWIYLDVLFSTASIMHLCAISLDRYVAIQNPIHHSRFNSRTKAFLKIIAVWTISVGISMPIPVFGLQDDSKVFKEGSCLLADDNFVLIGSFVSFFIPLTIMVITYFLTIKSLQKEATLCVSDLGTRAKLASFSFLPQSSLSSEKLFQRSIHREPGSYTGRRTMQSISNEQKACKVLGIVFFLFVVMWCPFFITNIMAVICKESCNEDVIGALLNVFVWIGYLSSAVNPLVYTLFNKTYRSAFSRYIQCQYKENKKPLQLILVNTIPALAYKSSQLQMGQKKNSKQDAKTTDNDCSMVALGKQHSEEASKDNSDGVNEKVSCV
T2 sequence (P41595 whole entry): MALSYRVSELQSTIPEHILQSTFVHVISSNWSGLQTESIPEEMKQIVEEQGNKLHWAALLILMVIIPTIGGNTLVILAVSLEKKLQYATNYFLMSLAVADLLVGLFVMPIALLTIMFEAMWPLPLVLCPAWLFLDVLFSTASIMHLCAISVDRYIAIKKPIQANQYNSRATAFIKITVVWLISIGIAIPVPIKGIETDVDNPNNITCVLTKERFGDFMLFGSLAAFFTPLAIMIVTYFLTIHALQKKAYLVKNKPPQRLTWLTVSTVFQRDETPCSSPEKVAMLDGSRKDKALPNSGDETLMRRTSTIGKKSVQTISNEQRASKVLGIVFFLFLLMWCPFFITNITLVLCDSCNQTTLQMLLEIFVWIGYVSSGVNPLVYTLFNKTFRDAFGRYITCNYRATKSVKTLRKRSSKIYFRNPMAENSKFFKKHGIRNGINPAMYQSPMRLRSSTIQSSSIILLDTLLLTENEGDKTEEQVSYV
Chain of 5-HT7 (P34969 whole entry, species assumed): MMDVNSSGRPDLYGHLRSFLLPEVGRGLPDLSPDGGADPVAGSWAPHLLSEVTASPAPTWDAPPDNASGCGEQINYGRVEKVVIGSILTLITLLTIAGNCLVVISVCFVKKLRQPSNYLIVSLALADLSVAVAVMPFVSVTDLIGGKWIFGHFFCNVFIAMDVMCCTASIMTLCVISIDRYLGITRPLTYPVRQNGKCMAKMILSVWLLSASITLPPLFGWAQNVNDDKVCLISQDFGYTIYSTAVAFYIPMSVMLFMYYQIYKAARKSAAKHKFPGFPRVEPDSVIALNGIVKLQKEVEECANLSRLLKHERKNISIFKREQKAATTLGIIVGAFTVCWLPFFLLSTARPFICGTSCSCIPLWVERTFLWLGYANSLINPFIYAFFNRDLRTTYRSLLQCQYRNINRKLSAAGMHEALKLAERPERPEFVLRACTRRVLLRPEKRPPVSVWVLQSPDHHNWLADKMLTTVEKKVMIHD
Chain of 5-HT1e (P28566 whole entry, species assumed): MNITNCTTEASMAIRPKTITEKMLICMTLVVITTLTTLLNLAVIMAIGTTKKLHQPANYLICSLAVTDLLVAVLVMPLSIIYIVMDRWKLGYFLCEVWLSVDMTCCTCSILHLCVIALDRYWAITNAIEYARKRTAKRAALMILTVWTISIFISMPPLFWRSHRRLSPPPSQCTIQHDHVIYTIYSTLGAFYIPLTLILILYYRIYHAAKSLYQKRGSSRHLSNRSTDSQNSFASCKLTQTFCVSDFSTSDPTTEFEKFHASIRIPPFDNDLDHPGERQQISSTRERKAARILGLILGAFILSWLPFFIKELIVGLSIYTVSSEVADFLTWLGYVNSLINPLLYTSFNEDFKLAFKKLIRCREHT
Chain of 5-HT5a (P47898 whole entry, species assumed): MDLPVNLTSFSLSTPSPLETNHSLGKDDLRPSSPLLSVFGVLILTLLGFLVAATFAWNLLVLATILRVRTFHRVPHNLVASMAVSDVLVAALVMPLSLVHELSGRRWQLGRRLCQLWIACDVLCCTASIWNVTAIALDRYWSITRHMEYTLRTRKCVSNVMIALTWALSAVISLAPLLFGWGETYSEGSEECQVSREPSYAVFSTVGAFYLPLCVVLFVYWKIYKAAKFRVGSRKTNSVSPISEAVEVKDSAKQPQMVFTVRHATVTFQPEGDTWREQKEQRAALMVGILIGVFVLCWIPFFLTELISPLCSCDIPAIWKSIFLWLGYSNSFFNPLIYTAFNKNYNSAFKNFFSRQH
Chain of 5-HT6 (P50406 whole entry, species assumed): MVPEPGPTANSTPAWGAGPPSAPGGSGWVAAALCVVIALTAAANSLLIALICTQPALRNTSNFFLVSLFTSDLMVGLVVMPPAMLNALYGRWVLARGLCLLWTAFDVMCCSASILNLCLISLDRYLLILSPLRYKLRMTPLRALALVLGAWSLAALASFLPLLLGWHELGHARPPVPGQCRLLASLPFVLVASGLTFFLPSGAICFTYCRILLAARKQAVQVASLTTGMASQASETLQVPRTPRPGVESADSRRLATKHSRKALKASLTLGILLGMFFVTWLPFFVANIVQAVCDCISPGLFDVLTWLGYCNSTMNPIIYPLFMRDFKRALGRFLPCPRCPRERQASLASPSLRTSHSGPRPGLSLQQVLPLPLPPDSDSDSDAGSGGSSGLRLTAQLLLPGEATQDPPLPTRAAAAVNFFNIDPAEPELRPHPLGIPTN
Chain of 5-HT1D (P28221 whole entry, species assumed): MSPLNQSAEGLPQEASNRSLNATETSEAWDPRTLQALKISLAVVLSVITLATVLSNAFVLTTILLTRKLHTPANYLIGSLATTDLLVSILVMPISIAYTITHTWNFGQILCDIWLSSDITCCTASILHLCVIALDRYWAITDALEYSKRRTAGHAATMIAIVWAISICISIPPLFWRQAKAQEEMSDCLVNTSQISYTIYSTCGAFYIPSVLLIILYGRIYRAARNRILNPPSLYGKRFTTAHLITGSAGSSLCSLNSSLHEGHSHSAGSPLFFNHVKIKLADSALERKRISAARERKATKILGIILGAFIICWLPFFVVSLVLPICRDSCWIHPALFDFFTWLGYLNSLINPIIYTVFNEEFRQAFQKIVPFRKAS
Chain of 5-HT1B (P28222 whole entry, species assumed): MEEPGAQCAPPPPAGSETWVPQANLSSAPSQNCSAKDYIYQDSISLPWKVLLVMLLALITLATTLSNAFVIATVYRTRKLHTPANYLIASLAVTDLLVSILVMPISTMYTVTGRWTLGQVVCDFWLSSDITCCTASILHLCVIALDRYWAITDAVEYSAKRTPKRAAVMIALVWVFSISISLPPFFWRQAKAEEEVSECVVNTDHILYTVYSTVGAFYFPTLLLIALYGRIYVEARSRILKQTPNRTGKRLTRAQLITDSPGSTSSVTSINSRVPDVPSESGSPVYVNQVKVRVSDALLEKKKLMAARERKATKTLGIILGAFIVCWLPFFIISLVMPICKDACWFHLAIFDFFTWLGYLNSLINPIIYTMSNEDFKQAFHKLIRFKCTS

Structure (SMILES)	EC50 [2, 20] [nM]	Emax [2] [%]	Ki [3] [nM]	Emax [4] [%]	EC50 [4, 21] [nM]	also measured
COc1cccc([C@H](O)C2CCN(CCc3ccc(F)cc3)CC2)c1OC [Compound M100907, reference compound]	–	–	–	–	–	Effect on PCP-induced locomotor hyperactivity [1]: blocks PCP induced hyperactivity; Effect on PCP-induced locomotor hyperactivity ([1]; listed as M100,907): blocked
COc1cc(OC)c(OC)cc1CCNCc1c[nH]nc1-c1ccccc1 [(80)]	79.4	102 ± 3.7	302	31.8 ± 2.3	–	EC50 [4]: 537 nM
COc1cccc(COc2ccccc2CNCCc2cc(OC)c(OC)cc2OC)c1 [(79)]	–	33 ± 4.8	158	< 10	–	EC50 [2]: 1120 nM; 5-HT2A Gq dissociation pEC50 ([4]; BRET, mean ± SEM): No activity
COc1cc(OC)c(OC)cc1CCNCc1ccc(-c2cccs2)s1 [(77)]	–	82.5 ± 4.2	324	49 ± 5.1	–	–
COc1cc(OC)c(OC)cc1CCNCc1cccc2c1oc1ccccc12 [(74), N-(dibenzo-[b, d]-furan-4-ylmethyl)-2-(2,4,5-trimethoxyphenyl)-ethan-1-amine]	16.2	68.3 ± 3.4	67.6	40.2 ± 1.9	81.3	–
COc1cc(OC)c(OC)cc1CCNCc1cccc(I)c1F [(72)]	7.08	63.5 ± 3.2	49	60.7 ± 1.7	33.9	–
COc1cc(OC)c(OC)cc1CCNCc1ccc(-c2ccccc2)s1 [(76), N-((5-phenylthiophen-2-yl)methyl)-2-(2,4,5-trimethoxyphenyl)-ethan-1-amine]	91.2	78 ± 4	447	57.4 ± 4.6	–	EC50 [4]: 1070 nM
COc1ccc(OC)c(CNCCc2cc(OC)c([N+](=O)[O-])cc2OC)c1 [25N-NB-2,5-DiMeO (20)]	–	–	–	–	–	5-HT2A/5-HT2c Selectivity Factor ΔLog(Emax/EC50) [5]: 5-HT2A Selective; Ki [6]: 135 nM; Ki [7]: 145 nM; 5-HT2B EC50, nM [8]: No activity; Emax ([8]; read-out: 5-HT2B Emax % 5-HT): < 10%; EC50 ([9]; 5-HT2A EC50, nM, Ca2+ flux): 133 nM; Emax ([9]; read-out: 5-HT2A Emax % 5-HT, Ca2+ flux): 72 ± 1%; Ki [10]: > 10000 nM; Ki [11]: > 10000 nM; Ki [12]: 229 nM; Ki [13]: > 10000 nM; Ki [14]: 513 nM; Ki [15]: > 10000 nM; Ki [16]: > 10000 nM; Ki [17]: > 10000 nM; Ki [18]: > 10000 nM; 5-HT2C EC50, nM [19]: No activity; Emax ([19]; read-out: 5-HT2C Emax % 5-HT): < 10%
COc1cc(OC)c(OC)cc1CCNCc1ccc(F)c2ccccc12 [(67)]	10.2	73.6 ± 3.2	50.1	41 ± 1.3	22.9	–
COc1cc(OC)c(OC)cc1CCNCc1cccc(C(C)(C)C)c1 [(71)]	1620	60.4 ± 5.2	380	38.6 ± 5	1620	–
COc1cc(OC)c(OC)cc1CCNCc1ccccc1C1CC1 [(70)]	6.92	116 ± 4.4	70.8	97.5 ± 1.5	3.63	–
COc1cc(OC)c(OC)cc1CCNCc1ccc(-c2ccccc2)o1 [(75)]	–	50.3 ± 4.7	309	< 10	–	EC50 [2]: 891 nM; 5-HT2A Gq dissociation pEC50 ([4]; BRET, mean ± SEM): No activity
COc1cc(OC)c(OC)cc1CCNCc1cccc(C)c1O [(68)]	1.41	89.1 ± 2.3	30.9	63.4 ± 0.8	3.24	–
